Test results published in article PMC11840788, “3,3′-Diindolylmethane (DIM): A Molecular Scaffold for Inhibition of WWP1 and WWP2, Members of the NEDD4 Family HECT E3 Ligases” (ACS Omega, 2025).
“And” between values parts separate entries of the source, which are not always exact repeats. Equal values may be shown once.

Tests used:
[1] = target: T1, WWP1 (His-tagged WWP1-L34H) (Homo sapiens, UniProt Q9H0M0); assay: in vitro autoubiquitination assay (single shot and dose dependency), WWP1; type: biochemical; details: for inhibition of WWP1 (in words): autoubiquitination assay; for WWP1 RA (%) relative activity: single shot, compound at 1 mM (1% DMSO), standardized to 0 and 100% controls; for IC50: nonlinear regression of RA against log concentration, 1 mM to 10 nM, 1% DMSO
T1 construct: WWP1- 2,3-linker-WW3-WW4-HECT (WWP1-L34H); made in house; host or cells: E. coli BL21-CodonPlus RP (plasmid pET32a-WWP1-L34H, gift of Dr Wenyu Wen)
T1 sequence (Q9H0M0 415-922, stated change not applied): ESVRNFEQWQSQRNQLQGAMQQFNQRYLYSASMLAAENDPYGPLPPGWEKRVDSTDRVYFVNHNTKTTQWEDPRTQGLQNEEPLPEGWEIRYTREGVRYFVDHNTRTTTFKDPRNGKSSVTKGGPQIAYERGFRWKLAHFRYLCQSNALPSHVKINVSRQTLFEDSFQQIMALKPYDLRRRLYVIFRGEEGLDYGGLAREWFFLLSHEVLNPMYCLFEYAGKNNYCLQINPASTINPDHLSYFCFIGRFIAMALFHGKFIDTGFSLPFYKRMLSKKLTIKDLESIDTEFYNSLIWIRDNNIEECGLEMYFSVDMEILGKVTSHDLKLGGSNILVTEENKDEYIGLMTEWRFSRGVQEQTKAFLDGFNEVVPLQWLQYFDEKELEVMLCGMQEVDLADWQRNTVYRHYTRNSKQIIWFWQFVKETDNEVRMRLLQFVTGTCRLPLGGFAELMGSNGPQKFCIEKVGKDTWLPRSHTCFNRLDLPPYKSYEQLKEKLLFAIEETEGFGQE
Method: (§1) A single shot in vitro autoubiquitination assay was performed for I3C, DIM and each of the derivatives against WWP1 and WWP2 using a compound concentration of 1 mM (1% DMSO) (SI Figure S3). […] These active compounds were then subjected to a detailed dose dependency analysis leading to IC50 values. This strategy has previously been employed to screen other WWP1/WWP2 small molecule inhibitors as well as used to assess I3C inhibition toward NEDD4-1.[29],[32] In this way, compounds displaying a relative activity (RA) of less than 50% in the single shot assay were further screened for dose-dependency using a logarithmic concentration range from 10 nM to 1 mM (1% DMSO) (SI Figure S4). […] These were confirmed by counter assays to remove compounds possibly interacting with other enzymes in the assay or interfering with the assay directly (SI Table S1).
(§2) Cell lysate containing His-tagged WWP1-L34H or GST-tagged WWP2-FL proteins were incubated on either 96-well Clear Pierce glutathione or nickel-coated plates for 1 h. Reaction mixtures of either 3 ng/well GST-Uba1 and 15 ng/well UbcH7 or 10 ng/well His-Uba1 and 150 ng/well His-UbcH7 were incubated together in 25 mM Tris pH 8.0, 100 mM NaCl, 4 mM MgCl2 containing 60 ng/well FLAG-ubiquitin and 1.25 mM ATP for 40 min. A prior 1% BSA plate blocking step is required for nickel-coated plates. After plate washing, 2 μL of the compound was added at the desired concentration (1% DMSO) followed by 18 μL of the reaction mixture. This was then incubated for 2 h with 0 and 100% controls before 100 μL of anti-FLAG M2-Peroxidase HRP (1:10,000 PBST) was added to each well and incubated for 1 h. Finally, 100 μL of 1 × TMB substrate solution (Invitrogen) was added to each well and incubated for up to 10 min until sufficient blue color change was observed. To stop the reaction, 100 μL of 1 M HCl was added. For the counter assay, 3 ng/well GST-Uba1 and 200 ng/well UbcH7 were incubated with the other reaction mixture components for 1 h before incubating onto plates for a further 1 h. All other steps were followed. The plates were washed three times with PBST (and 15 mM Imidazole) between each step. Quantification was measured by absorbance read at 450 nm. All assay optimizations were as previously reported.[32] IC50 nonlinear regression curves were calculated in GraphPad v10.2 (Prism). […]
(§3) Auto-ubiquitination Assay
(§4) Cell lysate containing His-tagged WWP1-L34H or GST-tagged WWP2-FL proteins were incubated on either 96-well Clear Pierce glutathione 2 or nickel-coated plates for 1 hour. Reaction mixtures of either 3 ng/well GST-Uba1 and 15 ng/well UbcH7 or 10 ng/well His-Uba1 and 150 ng/well His-UbcH7 were incubated together in 25 mM Tris pH 8.0, 100 mM NaCl, 4 mM MgCl2 containing 60 ng/well FLAG-ubiquitin and 1.25 mM ATP for 40 minutes. A prior 1 % BSA plate blocking step is required for nickel-coated plates. After plate washing, 2 μL of the compound was added at the desired concentration (1 % DMSO) followed by 18 μL of the reaction mixture. This was then incubated for 2 hours with 0% and 100% controls before 100 μL of anti-FLAG M2-Peroxidase HRP (1: 10,000 PBST) was added to each well and incubated for 1 hour.
(§5) Finally, 100 μL of 1 × TMB substrate solution (Invitrogen) was added to each well and […]
(§6) incubated for up to 10 minutes until sufficient blue colour change was observed. To stop the reaction, 100 μL of 1 M HCl was added. For the counter assay, 3 ng/well GST-Uba1 and 200 ng/well UbcH7 were incubated with the other reaction mixture components for 1 hour before incubating onto plates for a further 1 hour. All other steps were followed.
(§7) The plates were washed three times with PBST (and 15 mM Imidazole) between each step. Quantification was measured by absorbance read at 450 nm. All assay optimisations have been previously reported by Watt and colleagues3.
(§8) Relative activity (RA) was determined by comparing the autoubiquitination of the WWP ligases in the presence of each compound, i.e TMB absorbance (450 nm), to the […]

[2] = target: T2, WWP2 (GST-tagged WWP2-FL) (Homo sapiens, UniProt O00308); assay: in vitro autoubiquitination assay (single shot and dose dependency), WWP2; type: biochemical; details: for inhibition of WWP2 (in words): autoubiquitination assay; for WWP2 RA (%) relative activity: single shot, compound at 1 mM (1% DMSO), standardized to 0 and 100% controls; for IC50: nonlinear regression of RA against log concentration, 1 mM to 10 nM, 1% DMSO
T2 construct: Full- length WWP2 (WWP2-FL); made in house; host or cells: E. coli BL21-CodonPlus RP (plasmid pGEX2T-WWP2-FL, Dr Andrew Chantry's Lab)
T2 sequence (O00308 whole entry): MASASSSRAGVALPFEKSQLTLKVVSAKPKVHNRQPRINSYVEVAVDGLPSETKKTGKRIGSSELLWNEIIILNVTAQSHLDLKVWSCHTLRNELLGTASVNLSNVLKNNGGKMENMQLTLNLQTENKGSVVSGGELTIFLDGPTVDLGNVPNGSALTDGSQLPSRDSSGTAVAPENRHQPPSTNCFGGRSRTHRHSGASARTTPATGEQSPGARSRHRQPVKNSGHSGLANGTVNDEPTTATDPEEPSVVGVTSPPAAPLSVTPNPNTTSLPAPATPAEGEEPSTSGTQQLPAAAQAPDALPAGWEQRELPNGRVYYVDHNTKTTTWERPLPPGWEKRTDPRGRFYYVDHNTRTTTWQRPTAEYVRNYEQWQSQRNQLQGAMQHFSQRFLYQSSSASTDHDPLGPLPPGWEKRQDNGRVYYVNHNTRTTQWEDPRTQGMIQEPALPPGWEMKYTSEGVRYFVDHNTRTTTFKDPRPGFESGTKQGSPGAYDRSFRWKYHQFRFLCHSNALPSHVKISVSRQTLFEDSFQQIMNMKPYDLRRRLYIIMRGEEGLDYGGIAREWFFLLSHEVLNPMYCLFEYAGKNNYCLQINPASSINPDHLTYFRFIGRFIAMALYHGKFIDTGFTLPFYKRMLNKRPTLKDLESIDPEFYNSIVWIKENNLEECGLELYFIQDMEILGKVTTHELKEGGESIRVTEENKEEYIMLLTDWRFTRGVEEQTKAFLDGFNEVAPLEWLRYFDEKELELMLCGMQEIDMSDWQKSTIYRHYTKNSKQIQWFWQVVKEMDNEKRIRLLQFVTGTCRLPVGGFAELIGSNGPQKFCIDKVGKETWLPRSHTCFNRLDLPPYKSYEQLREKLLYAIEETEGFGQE
Method: as §1, §2, §3, §4, §5, §6, §7, §8

NEDD4-1 = tested on: NEDD4-1; set-up: method as in PMID 27979631; details: cited from earlier work
UbcH7 = target: T3, UbcH7 (Homo sapiens, UniProt P68036); assay: counter auto-ubiquitination screen; type: biochemical; details: counter assay, GST-Uba1 and UbcH7 without E3
T3 construct: GST (N, cleaved yes); made in house; host or cells: E. coli BL21 (DE3) (pGEX4T-1-UbcH7a and pGEX4T-1-hUba1, gifts of Dr Arthur L Haas's Lab)
T3 sequence (P68036 whole entry): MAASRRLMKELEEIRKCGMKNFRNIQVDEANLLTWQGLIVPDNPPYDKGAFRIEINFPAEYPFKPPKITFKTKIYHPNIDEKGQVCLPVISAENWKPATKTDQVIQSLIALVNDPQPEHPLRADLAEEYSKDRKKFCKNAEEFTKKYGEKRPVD
Method: as §1
Cell lysate containing His-tagged WWP1-L34H or GST-tagged WWP2-FL proteins were incubated on either 96-well Clear Pierce glutathione or nickel-coated plates for 1 h. Reaction mixtures of either 3 ng/well GST-Uba1 and 15 ng/well UbcH7 or 10 ng/well His-Uba1 and 150 ng/well His-UbcH7 were incubated together in 25 mM Tris pH 8.0, 100 mM NaCl, 4 mM MgCl2 containing 60 ng/well FLAG-ubiquitin and 1.25 mM ATP for 40 min. A prior 1% BSA plate blocking step is required for nickel-coated plates. […] Quantification was measured by absorbance read at 450 nm. […] IC50 nonlinear regression curves were calculated in GraphPad v10.2 (Prism). […]
The plates were washed three times with PBST (and 15 mM Imidazole) between each step. Quantification was measured by absorbance read at 450 nm. […]
Relative activity (RA) was determined by comparing the autoubiquitination of the WWP ligases in the presence of each compound, i.e TMB absorbance (450 nm), to the 100 % controls (1 % DMSO only), further normalising against background absorbance using 0 % controls (no E3 loaded). […]
IC50 non-linear regression curves were calculated in GraphPad v10.2 (Prism). […]

WWP1 = WWP1 (Homo sapiens, UniProt Q9H0M0); set-up: method as in PMID 31097636, doi:10.1016/j.phytol.2023.01.002; details: cited from earlier work
Chain of WWP1 (Q9H0M0 546-922 limits assumed): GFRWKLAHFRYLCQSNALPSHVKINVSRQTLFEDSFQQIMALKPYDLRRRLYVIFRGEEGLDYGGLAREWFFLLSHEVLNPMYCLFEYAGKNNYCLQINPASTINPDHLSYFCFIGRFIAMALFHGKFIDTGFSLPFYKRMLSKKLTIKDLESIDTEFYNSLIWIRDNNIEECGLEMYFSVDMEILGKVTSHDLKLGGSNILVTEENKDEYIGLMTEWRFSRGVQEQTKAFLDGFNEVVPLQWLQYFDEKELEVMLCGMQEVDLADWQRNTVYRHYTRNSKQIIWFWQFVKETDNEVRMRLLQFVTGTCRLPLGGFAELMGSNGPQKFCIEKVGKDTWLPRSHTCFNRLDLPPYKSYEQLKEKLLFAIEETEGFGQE

[3] = set-up: method as in PMID 17699787; details: cited from earlier work

SMILES | inhibition of WWP1 (in words) [1] | WWP1 RA (%) relative activity [1] [%] | inhibition of WWP2 (in words) [2] | WWP2 RA (%) relative activity [2] | IC50 (NEDD4-1) [µM] | IC50 [1] [µM] | IC50 [2] [µM] | UbcH7 Activity (%) (UbcH7) | IC50 (WWP1) [µM] | increase in antiproliferative properties relative to I3C [3] [fold]
OCc1cn(Cc2ccccc2)c2ccccc12 [Compound 13, N-benzylindole-3-carbinol] | no evidence of inhibition | 105.9 | no evidence of inhibition | 97.6% | 12.3 |  |  |  |  | 
Cc1ccc(S(=O)(=O)n2cc(CO)c3ccccc32)cc1 [Compound 15, N-(4-methylbenzenesulfonyl)indole-3-carbinol] | displayed inhibition | 11.4 | displayed inhibition | 39.2% |  | 218 | 224 | 86.3 ± 1.8 |  | 
O=S(=O)(c1ccc(C(F)(F)F)cc1)n1cc(CO)c2ccccc21 [Compound 16, N-(4-trifluoromethylbenzenesulfonyl)indole-3-carbinol] | displayed inhibition | 22.5 | displayed inhibition | 30.0% |  | 799 | 642 | 79.7 ± 1.5 |  | 
c1ccc2c(Cc3c[nH]c4ccccc34)c[nH]c2c1 [DIM, 3,3′-diindolylmethane] | displayed inhibition | 17.2 |  | 62.2 ± 6.1% and 62.2% |  | 111 |  | 83.3 ± 2.0 |  | 
CCc1ccc(C=CC(=O)Nc2ccc(C(C)=O)cc2)o1 [Heclin] |  |  |  |  |  |  |  |  | 6.9 | 
O=[N+]([O-])c1cc(S(=O)(=O)n2cc(CO)c3ccccc32)ccc1Cl [OSU-A9] |  |  |  |  |  |  |  |  |  | 100
